Measurements: publication PMC8512147, “Multifunctional Small Molecules as Potential Anti-Alzheimer’s Disease Agents” (Molecules, 2021)

What was measured:
[1] = Protonation constants by pH-potentiometric / UV–Vis spectrophotometric titration; format: physicochemical; conditions: pH 7.4, CL = 10^−5 M
Procedure: As concerns the metal chelation studies, potassium hydrogen phthalate (C8H5KO4, p.a.) was acquired from BDH, whereas dimethylsulfoxide (DMSO, dried, p.a.) and potassium chloride (KCl, p.a.) were supplied by Sigma-Aldrich. Aqueous solutions of metal ions were prepared starting from 1000 ppm standards (Titrisol, Sigma-Aldrich), to obtain solutions FeCl3 0.018 M and CuCl2 0.015 M. The metal content of solutions was evaluated by atomic absorption. Iron stock solution was prepared with an excess of acid chloride to avoid hydrolysis and its concentration in HCl was determined by the usual standard-addition method using 0.1M HCl (Titrisol). The 0.1M HCl solution, used in calibration of the glass electrode and in spectrophotometric titrations, was prepared from a Titrisol ampoule. […]
The spectrophotometric measurements were carried out in a 250–450 nm wavelength range at pH ca. 2.5–11.8. Under the stated experimental conditions, the pKw value (14.27) was determined and subsequently used in the computations. […] The metal hydrolysis model was determined under the defined experimental conditions (I = 0.1 M KCl, 20% w/w DMSO/H2O, T = 25.0 ± 0.1 °C) and the following values of stability constants were included in the fitting of experimental data towards the equilibrium models related to the Fe^3+/L and Cu^2+/L systems: log β (FeH-2) = −6.78, log β (FeH-3) = −10.78; log β (Cu2H-2) = −9.94. […]

Aβ1–42 peptide [2] = target: T1, Aβ1–42 peptide (Homo sapiens, UniProt P05067); test: Inhibition of self-mediated Aβ1–42 aggregation, Thioflavin T fluorescence assay; format: biochemical; design: Amyloid-β peptide (1–42) was purchased from GeneCust; purchased GeneCust; conditions: compounds 80 μM, without copper; ThT fluorescence; mean of two independent measurements in duplicate; read-out: Inhibition of Aβ1–42 Aggregation (%) Self-Aβ Aggr.
Procedure: (§1) The studied compounds (1a–e) were tested in vitro to evaluate their activity as inhibitors of Aβ1-42 peptide aggregation, through the Thioflavin T (ThT) fluorescence assay. This method is based on the strong ability of the dye ThT to bind β-amyloid fibrils and oligomers through ionic and hydrophobic interactions, while its interaction with β-amyloid monomers is extremely weak. The intercalation of compounds in the β-sheet structure of amyloid protein may prevent fibrils aggregation and ThT binding, and it is evaluated by fluorimetry. The fluorescence emission measurements were performed after overnight incubation of the self-mediated or Cu^2+-induced Aβ fibril aggregates with the studied compounds.
(§2) The inhibition of β-amyloid (Aβ) aggregation was studied through the Th-T fluorescence assay, which was performed using a Varian Cary Eclipse fluorimeter at the following wavelengths: excitation (446 nm) and emission (485 nm). Amyloid-β peptide (1–42) was purchased from GeneCust as lyophilized powder stored at −20 °C.
(§3) The method used is based on thioflavin T (ThT) fluorescence emission, which depends on the interaction of this dye with Aβ fibrils. The assay is performed with the Aβ1–42 peptide sample, which was previously prepared by solubilization of its lyophilized powder in 1,1,1,3,3,3–hexafluoro-2-propanol (HFIP), an organic solvent useful to solubilize and monomerize the β-sheets protein aggregates. After 24 h, the solution was divided into Eppendorf tubes kept in ice, and then, HFIP was left to evaporate overnight (T = 25 °C). The resultant films were stored in the freezer. […] Compounds were dissolved in MeOH (1 mg/mL) and diluted with phosphate buffer to reach a ligand stock solution of 480 μM. Two different types of experiments were prepared in a final volume of 60 μL: control ligand assays (Aβ1–42 aggregation in the absence of inhibitor) and ligand assays (effect of ligand on Aβ1–42 aggregation). For each experiment, a blank sample without Aβ1–42 was used to monitor the effect of the compounds in fluorescence. To study the inhibition of aggregation in the presence of Cu^2+, which is known to promote it, an intermediate stock solution of CuCl2 in phosphate buffer (240 µM) was prepared. Then, it was aliquoted to obtain a final concentration of 40 µM in the samples. All samples were incubated in a water bath for 24 h at 37 °C. Then, 180 µL of ThT (5 µM) in glycine-NaOH buffer (50 mM, pH = 8.5) is added to each solution and 200 µL of it is placed in a 96-well plate (BD Falcon) to be read with the fluorimeter. After 5 min of incubation with ThT, fluorescence was measured at 446 nm (ʎ excitation) and 485 nm (ʎ emission).

Aβ1–42 peptide [3] = target: T1, Aβ1–42 peptide; test: Inhibition of Cu^2+-induced Aβ1–42 aggregation, Thioflavin T fluorescence assay; format: biochemical; design: Amyloid-β peptide (1–42) was purchased from GeneCust; purchased GeneCust; conditions: compounds 80 μM, with copper 40 μM; ThT fluorescence; mean of two independent measurements in duplicate; read-out: Inhibition of Aβ1–42 Aggregation (%) Cu-Induced Aβ Aggr.
Procedure: as §1, §2, §3

T1 sequence (P05067 672-713): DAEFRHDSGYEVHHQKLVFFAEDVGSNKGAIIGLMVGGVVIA

Structure (SMILES)	predominant species neutral HL at physiological conditions [1] [%]	inhibition at 80 µM (Aβ1–42 peptide [2]) [%]	inhibition at 80 µM (Aβ1–42 peptide [3]) [%]
COc1cc(/C=C/C(=O)NOCc2cccc(Cl)c2)ccc1O [Compound 1d, (E)-N-((3-chlorobenzyl)oxy)-3-(4-hydroxy-3-methoxyphenyl)acrylamide]	97	34.1	76.1
COc1cc(/C=C/C(=O)NOCc2ccccc2OC)ccc1O [Compound 1a, (E)-3-(4-hydroxy-3-methoxyphenyl)-N-((2-methoxybenzyl)oxy)acrylamide]	96	42.6	79.6
